The numbers were not newly measured in patent EP4778980A1, “SILICONE MATERIAL, SILICONE TUBE, IMPLANT AND PREPARATION METHOD THEREFOR, ROD CORE, PERFORATED IMPLANT AND PREPARATION METHOD THEREFOR AND USE THEREOF” (SHENYANG XINGHUA PHARMACEUTICAL TECHNOLOGY CO., LTD, priority 2023, dated 2025), which cites them from elsewhere.

Structures are written as SMILES.

With `Cc1nc2n(c(=O)c1CCN1CCC(c3noc4cc(F)ccc34)CC1)CCCC2O` (stereo not shown) [Paliperidone], the solubility entry is given as “Paliperidone (98% purity) Mw = 426.48, 0.05 mg/ml”.
